Data set [1] can be described thus: Permeability of compound by PAMPA. In kind it is ADME. The settings on record: read-out: permeability. Background: PAMPA measures passive passage across an artificial lipid membrane.
Data set [2] has as its target T1, Tyrosine-protein phosphatase non-receptor type 1 (Homo sapiens, UniProt P18031).
T1 sequence (P18031 whole entry): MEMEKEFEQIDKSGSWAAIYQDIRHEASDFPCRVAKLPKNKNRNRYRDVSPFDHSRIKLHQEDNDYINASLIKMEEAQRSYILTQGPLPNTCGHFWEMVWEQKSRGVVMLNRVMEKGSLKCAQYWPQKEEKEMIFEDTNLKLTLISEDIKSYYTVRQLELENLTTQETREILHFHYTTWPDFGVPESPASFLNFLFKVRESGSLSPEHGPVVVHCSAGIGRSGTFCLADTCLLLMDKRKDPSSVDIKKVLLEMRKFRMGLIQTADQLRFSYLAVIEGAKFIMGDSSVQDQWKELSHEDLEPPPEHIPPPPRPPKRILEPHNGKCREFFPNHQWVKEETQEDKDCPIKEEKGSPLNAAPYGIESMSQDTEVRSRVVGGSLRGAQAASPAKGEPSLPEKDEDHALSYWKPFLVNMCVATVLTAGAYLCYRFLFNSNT
The data set is described as follows: Inhibition of PTP1B assessed as pNPP hydrolysis.

A value given as a limit tells only on which side of the number the result lay.

One may read the Ki as the dissociation constant of the complex between target and ligand, obtained from inhibition or displacement. The IC50 is the concentration needed to halve the response being measured.

As to `Cc1c(N2CC(=O)NS2(=O)=O)csc1-c1cccc(NC2CCN(S(=O)(=O)Cc3ccccc3)CC2)c1`, in data set [1], the Papp worked out at 0.19 ×10⁻⁶ cm/s. Besides, the Ki in data set [2] turned out to be 4.3 µM.

For `NNC(=O)c1sc(Br)c(Br)c1OCC(=O)O`, in data set [2], the IC50 was > 2500 µM.

For `NC(=O)c1sc(Br)c(Br)c1OCC(=O)O`, in data set [2], the concentration for half-maximal inhibition (IC50) was > 2500 µM. The same measure, in the same setting: with `O=C(O)COc1c(C(=O)Nc2ccn[nH]2)sc(Br)c1Br` the figure was > 2500 µM. As to `N#CCOc1c(C(=O)O)sc(Br)c1Br`, in data set [2], the IC50 was > 2500 µM. Same read-out and setting: then `CCc1nc(-c2sc(Br)c(Br)c2OCC(=O)O)no1`, with > 2500 µM.

For `O=C(O)COc1c(-c2nnn[nH]2)sc(Br)c1Br`, in data set [2], the IC50 is 430 µM and the inhibitory constant (Ki) was determined as 270 µM.

Consider `O=C(O)c1sc(Br)c(Br)c1OCCO`, for which, in data set [2], the IC50 was > 2500 µM. Still for that read-out and setting: then `O=C(O)c1sc(Br)c(Br)c1OCC(O)CO` (stereo not drawn), with > 2500 µM. With `O=C(O)COc1csc(Br)c1Br`, the 50% inhibitory concentration (IC50) in data set [2] was > 2500 µM.

With `Cc1c(-c2ccccc2)sc(-c2nnn[nH]2)c1OCC(=O)O`, the inhibition constant (Ki) in data set [2] was determined as 170 µM. Still for that read-out and setting: with `CC(=O)N(c1cccc(-c2sc(-c3nn[nH]n3)c(OCC(=O)O)c2Br)c1)C1CC(C)(C)CC(C)(C)C1` the figure was 4.6 µM. On to `CC(=O)Nc1sc(Br)c(Br)c1OCC(=O)O`, for which the half-inhibitory concentration (IC50) in data set [2] is > 2500 µM. Consider `C=CCc1sc(Br)c(Br)c1OCC(=O)O`, for which, in data set [2], the concentration for half-maximal inhibition (IC50) is 165 µM.

Turning to `N#Cc1sc(Br)c(Br)c1OCC(=O)O`, the IC50 in data set [2] was > 2500 µM. Same read-out and setting: then `O=C1CN(c2csc(-c3ccccc3)c2Br)S(=O)(=O)N1`, with 29 µM; and `O=C(O)COc1c(C(=O)O)sc(Br)c1Br`, with 29 µM. For the molecule `C=CCOc1c(C(=O)O)sc(Br)c1Br`, the IC50 in data set [2] is > 2500 µM. In the case of `O=C1CN(c2c(Cl)sc(-c3ccccc3)c2Cl)S(=O)(=O)N1`, the Papp in data set [1] is 3.54 ×10⁻⁶ cm/s. `O=C(O)c1sc(Br)c(Br)c1OCC(F)(F)F`: the IC50 in data set [2] is > 2500 µM.

Regarding `O=C(O)c1sc(Br)c(Br)c1OCc1nn[nH]n1`, in data set [2], the IC50 is > 2500 µM.

With `O=C(O)COc1c(C(=O)Nc2nccs2)sc(Br)c1Br`, the IC50 in data set [2] was > 2500 µM. As to `Cc1c(N2CC(=O)NS2(=O)=O)csc1-c1cccc(NC2CCCCC2)c1`, the inhibition constant (Ki) in data set [2] is 12 µM. As to `O=C(O)COc1c(C(=O)N2CCOCC2)sc(Br)c1Br`, the half-inhibitory concentration (IC50) in data set [2] is 210 µM. Same read-out and setting: with `Cc1nc(-c2sc(Br)c(Br)c2OCC(=O)O)no1` the figure was > 2500 µM. On the same count and under the same terms, then `CC(C)c1nc(-c2sc(Br)c(Br)c2OCC(=O)O)no1`, with > 2500 µM. For the molecule `O=C(COc1c(C(=O)O)sc(Br)c1Br)NO`, the half-maximal inhibitory concentration (IC50) in data set [2] was > 2500 µM.

Take `O=C(O)COc1c(C(=O)CO)sc(Br)c1Br`: in data set [2], the concentration for half-maximal inhibition (IC50) came out at 330 µM and the Ki is 210 µM.

Regarding `O=C(O)COc1c(-c2nnn[nH]2)sc(-c2ccccc2)c1Br`, the Ki in data set [2] came out at 20 µM. Same read-out and setting: then `O=C(O)COc1c(-c2nnn[nH]2)sc(-c2cccc(NC3CCCCC3)c2)c1Br`, with 18 µM; and `CC1(C)CC(Nc2cccc(-c3sc(-c4nn[nH]n4)c(OCC(=O)O)c3Br)c2)CC(C)(C)C1`, with 1.6 µM. For the molecule `Cc1c(-c2cccc(OC3CCN(S(=O)(=O)Cc4ccccc4)CC3)c2)sc(-c2nn[nH]n2)c1OCC(=O)O`, in data set [1], the Papp came to 0.22 ×10⁻⁶ cm/s. Also, the inhibition constant Ki in data set [2] is 1.3 µM. Turning to `O=C(O)COc1cc(-c2ccccc2)sc1-c1nn[nH]n1`, the inhibitory constant (Ki) in data set [2] amounted to 120 µM. As for `O=C(O)COc1c(CO)sc(Br)c1Br`, the IC50 in data set [2] was > 2500 µM.

For the origin of these results see ChEMBL document CHEMBL1139178, “Probing acid replacements of thiophene PTP1B inhibitors” (Bioorg Med Chem Lett, 2007).
